Laboratory results published in US10052326B1, “Antihepatotoxic agents” (KING SAUD UNIVERSITY, priority 2017, dated 2018).
One block for each compound: values may come before it.

Assays:
[1] = test system: CCl4-induced hepatotoxicity in hepatocytes of rats; test: Histopathological evaluation of liver of CCl4-intoxicated rats; format: in vivo, Wistar albino rats; settings: light micrographs, hematoxylin and eosin
Experimental: Animals and study design: Wistar albino rats (180-200 g) were obtained from the Experimental Animal Care Center of the College of Pharmacy, King Saud University, Riyadh. Animals were maintained on standard chow diet and housed in polycarbonate cages in a room free from any source of chemical contamination, artificially illuminated (12 h dark/light cycle) and thermally controlled (25±2° C.) at the animal facility. All animals received humane care in compliance with the guidelines of the Ethics Committee of the Experimental Animal Care Society, College of Pharmacy, King Saud University, Riyadh, Saudi Arabia. After a one-week acclimatization period, animals were randomly allocated into 5 groups and treated as follows: group (1), untreated control; and groups 2, 3, 4, and 5 received 0.25 mL of CCl4 in liquid paraffin (1:1) 1.25 mL/kg body weight intraperitoneally (IP). Group 2 was administered only CCl4. Groups 3 and 4 received DHBP-2 (10 mg/kg) and (20 mg/kg/day) orally for 2 weeks, respectively. Rats in group 5 were treated with (10 mg/kg) orally with silymarin for similar days. The blood was collected by cardiac puncture after 24 hours following the administration of CCl4, allowed to clot, and the serum was then separated. After collecting the blood, the animals were sacrificed using ether anesthesia. […]

[2] = test system: CCl4-induced hepatotoxicity; test: Determination of total protein (TP) in CCl4-intoxicated rats; format: in vivo, Wistar albino rats; settings: liver tissue; for Total Protein: n = 6, mean
Experimental: (§1) Animals and study design: Wistar albino rats (180-200 g) were obtained from the Experimental Animal Care Center of the College of Pharmacy, King Saud University, Riyadh. Animals were maintained on standard chow diet and housed in polycarbonate cages in a room free from any source of chemical contamination, artificially illuminated (12 h dark/light cycle) and thermally controlled (25±2° C.) at the animal facility. All animals received humane care in compliance with the guidelines of the Ethics Committee of the Experimental Animal Care Society, College of Pharmacy, King Saud University, Riyadh, Saudi Arabia. After a one-week acclimatization period, animals were randomly allocated into 5 groups and treated as follows: group (1), untreated control; and groups 2, 3, 4, and 5 received 0.25 mL of CCl4 in liquid paraffin (1:1) 1.25 mL/kg body weight intraperitoneally (IP). Group 2 was administered only CCl4. Groups 3 and 4 received DHBP-2 (10 mg/kg) and (20 mg/kg/day) orally for 2 weeks, respectively. Rats in group 5 were treated with (10 mg/kg) orally with silymarin for similar days. The blood was collected by cardiac puncture after 24 hours following the administration of CCl4, allowed to clot, and the serum was then separated. After collecting the blood, the animals were sacrificed using ether anesthesia. The rat livers were dissected out and used for biochemical estimations and histological assessment.
Determination of total protein (TP): Total protein was estimated by the kit method, supplied by Crescent Diagnostics, Jeddah, Saudi Arabia. The absorbance of this complex at 546 nm is proportional to the protein concentration. […]

[3] = test system: CCl4-induced hepatotoxicity; test: Determination of malondialdehyde (MDA) in liver tissue of CCl4-intoxicated rats; format: in vivo, Wistar albino rats
Experimental: as §1
Determination of malondialdehyde (MDA): The method reported by (Utley H. C. et al., Archives of Biochemistry Biophysics, 1967, 260, 521-531) was followed. Briefly, the liver tissues were removed, and tissue was homogenized in 0.15 M KCl (at 4° C.; Potter-Elvehjem type C homogenizer) to give a 10% w/v homogenate. The absorbance of the solution was then read at 532 nm. The content of malondialdehyde (nmol/g wet tissue) was then calculated, by reference to a standard curve of malondialdehyde solution.

[4] = test system: CCl4-induced hepatotoxicity; test: Serum lipid profile in CCl4-intoxicated rats; format: in vivo, Wistar albino rats; settings: 20 mg/kg, two week pretreatment before CCl4
Experimental: as §1

[5] = test system: CCl4-induced hepatotoxicity; test: Estimation of hepatic non-protein sulfhydryls (NP-SH) in CCl4-intoxicated rats; format: in vivo, Wistar albino rats; settings: liver tissue; for NP-SH: n = 6, mean
Experimental: as §1
Estimation of non-protein sulfhydryls (NP-SH): Hepatic non-protein sulfhydryls were measured according to the method of Sedlak and Lindsay et. al., Analytical Biochemistry C, 1968, 25, 192-205. The livers were homogenized in ice-cold 0.02 mmol/L ethylenediaminetetraacetic acid (EDTA). The absorbance was measured within 5 min. of addition of 5,5′-dithio-bis(2-nitrobenzoic acid) (DTNB) at 412 nm against a reagent blank.

[6] = test system: CCl4-induced hepatotoxicity; test: Estimation of serum marker enzymes and bilirubin in CCl4-intoxicated rats; format: in vivo, Wistar albino rats; settings: 20 mg/kg orally for 2 weeks before CCl4, vs CCl4 group
Experimental: as §1
Estimation of marker enzymes: Serum glutamate oxaloacetate transaminase (SGOT/AST), serum glutamate pyruvate transaminase (SGPT/ALT) (Reitman S. A. et al., Am. J. Clin. Pathol. 1957, 28 (1), 56-63), alkaline phosphatase (ALP), gamma-glutamyl transferase (GGT) and bilirubin were determined using Reflotron Plus Analyzer and Roche kits (Roche Diagnostics GmbH, Mannheim, Germany) (King E. J. et al., Practical Clinical Biochemistry, H. Varley, Ed., CBS publishers, New Delhi, India, 1988).

mice = test: Acute toxicity test, oral administration; format: in vivo; settings: in 0.5% CMC, observation up to 14 days
Experimental: Acute toxicity test: The acute toxicity test was performed on mice, for oral administration. DHPB-2 was dissolved in 0.5% CMC (carboxymethylcellulose) in water and administered at various doses, ranging from ([…]), to different groups of mice. The animals were observed continuously for 1 h and then at half hourly intervals for 4 h on the first day for clinical signs and symptoms of toxicity, and further up to 72 h followed by 14 days, for any mortality.

melting point: 210 to 212 °C
SMILES: CCOc1ccc(C2NC(=O)NC=C2C(=O)c2ccc3c(c2)OCCO3)cc1 (centres unmarked) [DHPB-6, 4-(4-Ethoxyphenyl)-5-(2,3-dihydro-1,4-benzodioxin-6-ylcarbonyl)-3,4-dihydro-pyrimidin-2(1H)-one]

SMILES: O=C1NC=C(C(=O)c2ccc3c(c2)OCCO3)C(c2ccc([N+](=O)[O-])cc2)N1 (centres unmarked) [DHPB-2, 4-(4-Nitrophenyl)-5-(2,3-dihydro-1,4-benzodioxin-6-ylcarbonyl)-3,4-dihydro-pyrimidin2(1H)-one]
histopathological assessment of the liver ([1]; 10 mg/kg/day oral pretreatment): marked improvement in liver parenchyma | histopathological assessment of the liver ([1]; 20 mg/kg/day oral pretreatment): marked improvement in liver parenchyma | TP level (in words) ([2]; 20 mg/kg, vs CCl4 group): significantly enhanced | Total Protein ([2]; dose 10 mg/kg + CCl4): 38.11 g/L | Total Protein ([2]; dose 20 mg/kg + CCl4): 74.03 g/L | level of MDA (in words) ([3]; 20 mg/kg, vs CCl4 group): significant reduction | MDA ([3]; dose 10 mg/kg + CCl4, n = 6, mean): 6.84 nmol/g | MDA ([3]; dose 20 mg/kg + CCl4, n = 6, mean): 1.59 nmol/g | HDL cholesterol level [4]: significantly improved | LDL cholesterol level [4]: significantly reduced | VLDL cholesterol level [4]: significantly reduced | cholesterol level [4]: significantly reduced | triglycerides level [4]: significantly reduced | NP-SH level (in words) ([5]; 20 mg/kg, vs CCl4 group): significantly enhanced | NP-SH ([5]; dose 10 mg/kg + CCl4): 4.30 nmol/g | NP-SH ([5]; dose 20 mg/kg + CCl4): 6.16 nmol/g | ALP level [6]: significant decrease | ALT level [6]: significant decrease | AST level [6]: significant decrease | GGT level [6]: significant decrease | bilirubin level [6]: significant decrease | dose up to which no toxicity symptoms and no morbidity were observed (mice): up to 500 mg/kg
